{"source": "paper PMC7175277", "about": "“Hydroxylamine Analogue of Agmatine: Magic Bullet for Arginine Decarboxylase” (Biomolecules, 2020)", "key": {"E. coli ADC": {"molecular_target": "T1, E. coli ADC (Escherichia coli, UniProt P21170)", "T1 construct": "The kinetic parameters determined for the partially purified biosynthetic ADC from E. coli; endogenous in cells; host or cells: E. coli DH5α (39-53% ammonium sulphate fraction of the lysate, desalted)", "T1 sequence (P21170 1-658)": "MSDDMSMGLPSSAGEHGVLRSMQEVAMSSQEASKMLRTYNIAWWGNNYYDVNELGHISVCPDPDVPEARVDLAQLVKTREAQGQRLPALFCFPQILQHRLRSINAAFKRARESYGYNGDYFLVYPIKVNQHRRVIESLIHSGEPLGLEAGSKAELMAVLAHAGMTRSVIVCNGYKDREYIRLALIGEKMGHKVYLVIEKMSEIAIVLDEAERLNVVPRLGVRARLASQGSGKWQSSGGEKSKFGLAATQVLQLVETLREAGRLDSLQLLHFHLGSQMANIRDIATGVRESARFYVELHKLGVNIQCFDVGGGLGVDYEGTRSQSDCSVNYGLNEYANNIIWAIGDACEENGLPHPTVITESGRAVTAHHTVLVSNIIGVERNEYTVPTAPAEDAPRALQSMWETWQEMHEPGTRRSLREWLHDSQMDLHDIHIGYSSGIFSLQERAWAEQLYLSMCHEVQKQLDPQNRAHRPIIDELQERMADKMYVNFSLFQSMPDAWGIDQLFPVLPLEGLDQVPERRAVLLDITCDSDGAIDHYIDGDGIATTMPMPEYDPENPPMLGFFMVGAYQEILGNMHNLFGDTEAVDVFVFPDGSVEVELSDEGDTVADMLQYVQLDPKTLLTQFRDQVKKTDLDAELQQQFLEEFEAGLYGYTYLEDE", "experiment": "E. coli ADC activity assay (HPLC of agmatine)", "format": "biochemical", "details": "0.1 mM PLP; 15 min preincubation; 0.15 mM L-Arg", "protocol": "The purification was performed using a modified procedure of earlier publication. E. coli strain DH5α was grown in Luria-Bertani broth at +37 °C with shaking (200 rpm) overnight. The cells were collected by centrifugation and the pellet was homogenized with Potter-Elvehjem in 10 volumes (w/v) of ice-cold 50 mM Tris-HCl pH 7.4, 1 mM DTT. The cell debris was removed by centrifugation at 12,000 g for 30 min at +4 °C. Solid (NH4)2SO4 was added to the supernatant, and the pellet precipitating between 39% and 53% saturation was separated. The precipitate was resuspended in ice-cold buffer containing 50 mM Tris-HCl pH 7.4 and 1 mM DTT and desalted by passage through Sephadex G-25 column (NAP-10 column, GE Healthcare). The protein concentration was measured with Bio-Rad protein reagent, and the partially purified enzyme preparation was mixed with 20% glycerol and aliquoted for storage at −80 °C.\n[…] The ODC reaction mixture contained 50 mM Tris-HCl pH 7.8, 1 mM EDTA, 2.4 mM DTT, 0.1 mM PLP and 20 μg of partially purified enzyme preparation. The mixtures were either preincubated or not preincubated for 15 min at +40 °C in the presence of the inhibitor, after which the reaction was started by the addition of 18 μL of 10× substrate (L-Arg for ADC and L-Orn for ODC). After incubation for 30 min (ADC) or 20 min (ODC) at +40 °C, 20 μL of 50% sulphosalicylic acid containing 50 μM diaminoheptane (internal standard) was added and the samples were analyzed for the content of agmatine (ADC) and Put (ODC) with HPLC as described previously. The kinetic parameters and IC50 values were determined with the aid of GraphPad Prism version 5.03 using nonlinear regression analysis."}, "[1]": {"design": "method as in PMID 7896733", "details": "48 h; absence of amine oxidase inhibitor; cited from earlier work"}, "[2]": {"tested_on": "Acremonium chrysogenum high-cephalosporin-yielding (HY) RNCM F-4081D", "experiment": "Fungal growth inhibition (drop-dilution, CD agar), HY strain", "format": "cell-based", "source_text": "(§1) Two strains of Acremonium chrysogenum were used in this study: the wild-type (Brotzu) isolate ATCC 11550 (WT) and high-cephalosporin-yielding RNCM F-4081D (HY), derived from the WT [37]. The cultivation conditions were the same as previously described. The filamentous fungi were cultivated on agarized Czapek-Dox (CD) medium (30 g/L sucrose, 2 g/L NaNO3, 1 g/L K2HPO4, 0.5 g/L MgSO4×7 H2O, 0.5 g/L KCl, 0.01 g/L FeSO4×7 H2O, 20 g/L agar, pH 7.0–7.4). To determine the toxic effect of AO-Agm, APA, DFMA and DFMO on the growth of fungal cells the drop-dilution method was used with some modifications as described earlier. Cells were collected from agar slants and diluted with 0.9% NaCl solution up to OD600 = 0.5 (basic concentration), followed by serial tenfold dilutions with the same solution. […] The inoculated Petri dishes were incubated for 21 days at 26 °C. The inhibitory effects of the compounds were measured every three days after inoculation and evaluated by measuring the ratio of colony growth on agarized CD medium supplemented with AO-Agm, APA, DFMA, or DFMO to the growth in the control (agarized CD medium without any additions). The formula: growth inhibition % = [(Dc − Dt)/Dc] × 100, where Dc indicates the colony diameter in control set, and Dt indicates the colony diameter in the treatment set that was used to determine the percent of fungal growth inhibition. The data recorded were measured in triplicate and repeated at least twice."}, "mammalian ODC": {"tested_on": "mammalian ODC", "design": "method as in PMID 3841480, PMID 1573631", "details": "cited from earlier work"}, "[3]": {"tested_on": "Acremonium chrysogenum wild-type (WT) ATCC 11550", "experiment": "Fungal growth inhibition (drop-dilution, CD agar), WT strain", "format": "cell-based", "source_text": "as §1"}}, "note": "“Also recorded” adds a separate entry of the source."}
{"smiles": "NCCCON", "note": "[APA, 1-aminooxy-3-aminopropane]", "values": [{"measurement": "ADC inhibition relative to AO-Agm (weaker)", "setting": "E. coli ADC", "result": 1000, "unit": "times"}, {"measurement": "IC50", "setting": "E. coli ADC", "result": "33 ± 2", "unit": "µM"}, {"measurement": "Level remaining in the cell culture medium, of its initial concentration", "setting": "[1]", "result": "about 10%"}, {"measurement": "Growth inhibition compared with 5 mM", "setting": "[2]; HY strain, 1 mM inhibitor", "result": "much less effective"}, {"measurement": "inhibition at 5000 µM", "setting": "[2]; Hapsidospora chrysogena, 336 h, read-out: Growth inhibition", "result": 44, "unit": "%"}, {"measurement": "Concentrations inhibiting mammalian ODC", "setting": "mammalian ODC", "result": "nanomolar inhibitor; also recorded: nanomolar concentrations"}, {"measurement": "Growth of WT strain", "setting": "[3]; 5 mM inhibitor", "result": "completely inhibited"}, {"measurement": "Effect of 0.5 mM Spd on the growth arrest caused by the inhibitor", "setting": "[3]; 5 mM inhibitor + 0.5 mM Spd", "result": "reversed the growth arrest"}, {"measurement": "inhibition at 1000 µM", "setting": "[3]; Hapsidospora chrysogena, ATCC11550, 1 mM inhibitor, 17th day after inoculation", "result": "~95", "unit": "%"}, {"measurement": "inhibition at 5000 µM", "setting": "[3]; Hapsidospora chrysogena, ATCC11550, 336 h, 5 mM inhibitor, 14 days after inoculation on CD medium", "result": 100, "unit": "%"}]}
